The text below walks through data of US10556860B2, “hTERT modulators and methods of use” (Arizona Board of Regents on Behalf of the University of …, priority 2015, dated 2020).

For test [1], the target named is G124/125A 5-12 G-quadruplex of hTERT core promoter. Kind of test: FRET assay for Kd, G124/125A probe. In kind it is binding, human. On the procedure:
FRET assay for compound screening and determination of Kd value. FRET probes of WT, G124/125A, and G146A of the 5-12 G-quadruplex were synthesized and labeled with FAM (Ex. 490 nm/Em. 520 nm) and TAMRA (Ex. 560 nm/Em. 580 nm) at each end by MGW Operon Inc. The WT probe (50 nM) was annealed in a buffer containing 10 mM Tris-HCl (pH 7.5) and 5 mM KCl by heating at 95° C. for 5 min and slowly cooling to room temperature. Compounds (50 μM) and probe were incubated for 1 h at room temperature. The same volume of DMSO served as a control. For Kd value determination, the WT, G124/125A, and G146A probes were annealed, and then several concentrations of compound were treated for 1 h at room temperature. Dose-dependent fluorescence intensity at 520 nm was measured by a microplate reader (BioTek Synergy HT). The data were corrected with the blank signal of buffer and compound. The relative fluorescence intensity compared to DMSO was used for binding curve fitting to determine Kd value using GraphPad Prism software.
The hTERT core promoter region includes 12 runs of consecutive guanines that form two G-quadruplexes in tandem on the G-rich strand. […] When the G-quadruplex is folded, two fluorophores are in proximity, which leads to a decrease in FAM fluorescence. […]

Test [2] concerns G124/125A mutant hTERT G-quadruplex. In words: CD melting (Tm), G124/125A mutant. The test is classed as binding, human. The settings on record: 2 equiv. As for the experimental part:
(§1) Circular dichroism. Oligomers of WT, G124A, G124/125A, G138/139A and G146A were synthesized and HPSF-purified by MGW Operon, Inc. For CD analysis, oligomers (5 μM) in a buffer containing 10 mM Tris-HCl (pH 7.5) and 140 mM KCl were annealed. For the CD analysis of the complex of oligomers and compounds, oligomers (5 μM) in a buffer containing 10 mM Tris-HCl (pH 7.5) and 5 mM KCl for GTC365 or 1 mM KCl for BRACO-19 were annealed. Oligomers and GTC365 or BRACO-19 were incubated overnight at room temperature. For the full-length of C-rich strand, the oligomer in a buffer of 10 mM Na cacodylate (pH 6.6) was annealed and then incubated with GTC365 overnight. CD analysis was conducted on a Jasco 810 spectropolarimeter (Jasco, Easton, Md.) using a quartz cell with 1 mm of path length, 1 nm of band width, and 1 s of response time for spectra at 20° C. Melting curves for the determination of Tm were obtained by recording ellipticity at 262 nm with increasing temperatures from 25° C. to 95° C. at a rate of 1.6° C./min. Tm of the C-rich strand with GTC365 was obtained from the CD signal at 286 nm within 10-60° C.
(§2) CD and DMS footprinting analyses were conducted to characterize the binding of GTC365 and BRACO-19 to the 5-12 G-quadruplex. […] To verify the effects of compounds on the thermal stability of the WT and the mutant G-quadruplexes, Tms were determined by CD. […]

The test system of test [3] is G124/125A 5-12 G-quadruplex. In words: CD kinetics, temperature-jump, G124/125A. In kind it is biochemical, human. The settings on record: 2 equiv. As for the experimental part:
FIGS. 10A and 10B are a set of graphs showing (A) comparison of kinetics of initial folding rate of the WT 5-12 G-quadruplex with GTC365 and BRACO-19 by the temperature-jump method. (B) Enhanced initial folding rate of the 5-12 G-quadruplexes carrying different hTERT mutants by GTC365. The time-course CD signal of preheated oligo with compound or DMSO in a buffer containing 10 mM Tris-HCl (pH 7.5) and 5 mM KCl was monitored at 262 nm and 25° C.
For the kinetics analysis using the temperature-jump method, theoligo in a buffer containing 10 mM Tris-HCl (pH 7.5) was heated forl min at 95° C., and then a mixture of KCl and compound was addedand incubated for 1 min. Meanwhile, the CD cuvette was also heatedat 95° C. As soon as the sample in the CD cuvette at the hightemperature was placed in the CD chamber, a time-dependent CDsignal at 262 nm was recorded immediately. The initial folding ratewas determined by one-phase association curve fitting (eq 1) of thekinetics curve using GraphPad Prism 5: Y=Y0+(Plateau−Y0)*(1−e^−kx) (1) where Y is the CD signal at any time point x, Y0 is the Y value whentime (x) is zero, plateau is the Y value at infinite time, and k is the rateconstant.
To evaluate the comparative effects of GTC365 relative to BRACO-19 on the cooperative folding process, we carried out two different experiments. […]

For test [4], the system named is G138/139A mutant hTERT G-quadruplex. In words: CD melting (Tm), G138/139A mutant. The test is classed as binding, human. Conditions: 2 equiv. On the procedure: as §1, §2

Molecules are shown by their SMILES.

Take `N=C(N)NCCCS(=O)(=O)Nc1ccc(Nc2c3ccccc3nc3cc([N+](=O)[O-])ccc23)cc1` [GTC365]: the Kd in test [1] was around 400 nM. Further, the “Tm more increased compared to the WT” value in test [2] and in test [4] was 6-7 °C each time. Further, the “increase of initial folding rate” value in test [3] is 0.042 s⁻¹.

Usually Kd stands for the free concentration of one partner at which half of the binding sites on the other are occupied at equilibrium, for simple one-to-one binding.
